Measurements reported in US11160796B2, “Anti-androgens for the treatment of non-metastatic castration-resistant prostate cancer” (priority 2017, dated 2021).

Key:
[1] = system: non-metastatic castration-resistant prostate cancer (NM-CRPC); assay: Phase III study (SPARTAN, Study 1): efficacy; format: in vivo, human; conditions: for Metastasis Free Survival (MFS), median: 240 mg once daily + ADT, ITT, BICR
Text: The study consisted of a Screening Phase of up to 35 days before randomization to establish eligibility and document baseline measurements, a double-blind Treatment Phase (28-day treatment cycles; continuous dosing), and a Long-term Follow-up Phase to monitor PFS, survival status, subsequent prostate cancer therapy, PRO, and MRU. […] The randomization was stratified as follows: • PSADT: <6 months vs. >6 months; • Bone-sparing agent use: Yes vs. No; and • Loco-regional disease: N0 vs. N1 (ie, nodal disease).
All patients who were not surgically castrated received ADT continuously throughout the study. […] Systemic corticosteroids were not allowed at study entry. […] Patients randomized to either arm were to continue treatment until disease progression defined by blinded central imaging review (BICR), initiation of new treatment, unacceptable toxicity or withdrawal.
With the softgel capsules only, subjects could switch to a twice daily dosing regimen (4 tables each period) if gastrointestinal issues arose with the once daily schedule. […] For the purposes of this study, a treatment cycle consisted of 4 weeks (28 days).
The primary efficacy endpoint was metastasis-free survival (MFS), defined as the time from randomization to the time of first evidence of BICR-confirmed bone or soft tissue distant metastasis or death due to any cause, whichever occurred first. Metastasis-free survival data for subjects without metastasis or death were censored on the date of the last tumor assessment (or, if no tumor assessment was performed after the baseline visit, at the date of randomization). Censoring rules based on FDA and CHMP guidance were applied for analyses of MFS (referred to in the text as US censoring or ex-US censoring).
Patients were stratified by Prostate Specific Antigen (PSA) Doubling Time (PSADT), the use of bone-sparing agents, and locoregional disease. Patients were required to have a PSADT≤10 months and confirmation of non-metastatic disease by blinded independent central review (BICR).
The major efficacy outcome measure of the study was metastasis-free survival (MFS), defined as the time from randomization to the time of first evidence of BICR-confirmed distant metastasis, defined as new bone or soft tissue lesions or enlarged lymph nodes above the iliac bifurcation, or death due to any cause, whichever occurred first. Additional efficacy endpoints were time to metastasis (TTM), progression-free survival (PFS) which also includes locoregional progression, time to symptomatic progression, and overall survival (OS).

[2] = Fertility study in male rats; format: in vivo
[3] = In vivo rat (bone marrow) micronucleus assay
[4] = Incubation with liver S9 fraction and liver microsomes; format: in vitro ADME; conditions: incubated for up to 120 minutes; rat, dog, and human
Text: The primary in vivo metabolites were formed by N-demethylation and amide hydrolysis in the rat and dog.

[5] = Single oral administration of 14C-labeled apalutamide 240 mg (metabolite profile, excretion)
[6] = Phase III study (SPARTAN, Study 1): safety; format: in vivo, human
Text: SPARTAN, a randomized (2:1), double-blind, placebo-controlled, multi-center clinical study, enrolled patients who had non-metastatic, castration-resistant prostate cancer (NM-CRPC).

[7] = system: CYP2C9, CYP2C19, and CYP3A4; assay: In vitro CYP inhibition: CYP2C9, CYP2C19, CYP3A4
[8] = Preclinical pharmacokinetic profile; format: in vivo

CNC(=O)c1ccc(N2C(=S)N(c3cnc(C#N)c(C(F)(F)F)c3)C(=O)C23CCC3)cc1F [apalutamide, 4-[7-(6-cyano-5-trifluoromethylpyridin-3-yl)-8-oxo-6-thioxo-5,7-diazaspiro[3.4]oct-5-yl]-2-fluoro-N-methylbenzamide]
Metastasis Free Survival (MFS), median [1]: 41 months
Metastasis Free Survival (MFS), median ([1]; listed as Apalutamide): 40.5 months
decrease in the risk of symptomatic progression ([1]; compared with placebo): 55%
Progression-free Survival (PFS), median ([1]; in vivo): 40.5 months
Time to Metastasis (TTM), median ([1]; in vivo): 40.5 months
MFS HR, subgroup PSA doubling time of >6 months ([1]; non-stratified analysis): 0.30
MFS HR, subgroup PSA doubling time of months ([1]; non-stratified analysis): 0.29
MFS HR, total study population ([1]; non-stratified analysis): 0.30
decrease in the risk of distant metastasis or death ([1]; vs placebo): 72%
live fetuses (pre- and/or post-implantation loss) ([2]; 4 weeks of 150 mg/kg/day): reduced number of live fetuses
dose with decreased sperm concentration and motility, copulation and fertility rates, reduced secondary sex gland and epididymis weights ([2]; 4 weeks of dosing, male rats): > 25 mg/kg/day
reversibility of effects on male rats ([2]; after 8 weeks from the last administration): reversible
genotoxicity, in vivo rat micronucleus assay [3]: not genotoxic
turnover [4]: very low turnover
share of the total 14C-AUC in plasma ([5]; single oral 240 mg): 45%
% of dose in feces as this compound ([5]; up to 70 days): 1.5%
% of dose in urine as this compound ([5]; up to 70 days): 1.2%
radioactivity recovered in feces ([5]; up to 70 days): 24%
radioactivity recovered in urine ([5]; up to 70 days): 65%
radioactivity recovered ([5]; up to 70 days post-dose): 89%
Arthralgia ([6]; All Grades): 15.9%
Fall ([6]; All Grades): 15.6%
Fracture (grouped term) ([6]; All Grades): 11.7%
Hypercholesterolemia ([6]; All Grades): 6.1%
Hypertriglyceridemia ([6]; All Grades): 3.5%
Hypothyroidism (grouped term) ([6]; All Grades): 8.1%
Pruritus ([6]; All Grades): 6.2%
Seizure ([6]; All Grades): 0.2%
Skin rash (grouped term) ([6]; All Grades): 24%
Weight decreased ([6]; All Grades): 16.1%
Fatigue ([6]; All Grades, N = 803): 30.4%
Skin rash (grouped term) ([6]; All Grades, listed as Apalutamide): 23.8%
Arthralgia ([6]; Grade 3-4): 0%
Fall ([6]; Grade 3-4): 1.7%
Fatigue ([6]; Grade 3-4): 0.9%
Fracture (grouped term) ([6]; Grade 3-4): 2.7%
Hypercholesterolemia ([6]; Grade 3-4): 0%
Hypertriglyceridemia ([6]; Grade 3-4): 0.6%
Hypothyroidism (grouped term) ([6]; Grade 3-4): 0%
Pruritus ([6]; Grade 3-4): 0.2%
Seizure ([6]; Grade 3-4): 0%
Skin rash (grouped term) ([6]; Grade 3-4): 5.2%
Weight decreased ([6]; Grade 3-4): 1.1%
onset of skin rash, median ([6]; days of treatment): 82 days
Grade 3 skin rashes (covering >30% body surface area) ([6]; in vivo): 5.2%
Hypothyroidism in patients already receiving thyroid replacement therapy ([6]; in vivo): 28%
Hypothyroidism in patients not receiving thyroid replacement therapy ([6]; in vivo): 5.7%
discontinuations due to adverse events ([6]; in vivo): 11%
dose interruption among patients with skin rash ([6]; in vivo): 28%
dose reduction among patients with skin rash ([6]; in vivo): 12%
dose reduction, reason "other" ([6]; in vivo): 9.7%
dose reduction, reason adverse event ([6]; in vivo): 11%
patients whose skin rash resolved ([6]; in vivo): 81%
recurrence of skin rash in patients who were re-challenged ([6]; in vivo): approximately half
subjects receiving no dose modifications ([6]; in vivo): 79%
subjects with 2 dose interruptions ([6]; in vivo): 6.6%
subjects with dose interruptions due to TEAEs ([6]; in vivo): 34%
subjects with dose reductions ([6]; in vivo): 21%
subjects with one dose interruption ([6]; in vivo): 22%
subjects with one dose reduction ([6]; in vivo): 8.2%
subjects with two dose reductions ([6]; in vivo): 13%
time to resolution of rash from onset, median ([6]; in vivo): 60 days
treatment discontinuation among patients who experienced skin rash ([6]; in vivo): 9%
inhibition of CYP2C9, CYP2C19, and CYP3A4 [7]: weak inhibitors
genotoxicity, in vivo rat Comet assay (In vivo rat Comet assay): not genotoxic
clearance ([8]; preclinical): low clearance
volume of distribution ([8]; preclinical): moderate volume of distribution
bioavailability ([8]; when dosed with a lipid-based formulation): high bioavailability
